Experimental data taken from patent publication US20240327421A1 (Marquette University, priority 2017, published 2024).
“Also recorded” adds a separate entry of the source.

Key:
[1] = target: T1, CYP2C9 (Homo sapiens, UniProt P11712); experiment: P450-Glo CYP450 inhibition, CYP2C9; format: in vitro ADME; settings: highest concentration 62.6 μM
T1 construct: purchased Promega Corporation (Madison, WI)
Procedure: (§1) In Vitro Druggability Assays-CYP450 Binding, hERG & Nephelometry. The P450-Glo™ Screening System from Promega Corporation (Madison, WI) was used to measure CYP450 (cytochrome P450) inhibition, as described in the kit instructions. Assays were run in 96-well white plates (Corning® 3912), and luminescence was measured on a SpectraMax M5 instrument (FIG. 6). The luminescence signal is proportional to the amount of luciferin product formed by the CYP reaction. Compounds were prepared in DMSO, then an eight-step 1:2 dilution series was made in DMSO. […] After adding the relevant Cytochrome P450 enzyme, the plate was incubated at 37° C. for 10 minutes to allow components to come to temperature. Next, the NADPH regeneration system was added to activate the reaction on a luminogenic P450-GloTM substrate, and incubated at 37° C. for 10-30 min, according to kit instructions for each CYP enzyme. The enzyme reaction was stopped by the addition of Luciferin Detection Reagent and luminescence of the plate was read in a Spectramax M5 (Molecular Devices) after a 20 min incubation at room temperature. Data were normalized to positive controls (α-naphthoflavone for CYP1A2, sulfaphenazole for CYP2C9, quinidine for CYP2D6, and ketoconazole for CYP3A4). Data analysis was with Prism software, as described above.

[2] = target: T2, Androgen Receptor (AR) (Homo sapiens, UniProt P10275); experiment: GeneBLAzer nuclear hormone receptor specificity assay, AR; format: cell-based; settings: 0.25 to 25 μM; listed as ISP358-2
T2 sequence (P10275 669-900 limits assumed): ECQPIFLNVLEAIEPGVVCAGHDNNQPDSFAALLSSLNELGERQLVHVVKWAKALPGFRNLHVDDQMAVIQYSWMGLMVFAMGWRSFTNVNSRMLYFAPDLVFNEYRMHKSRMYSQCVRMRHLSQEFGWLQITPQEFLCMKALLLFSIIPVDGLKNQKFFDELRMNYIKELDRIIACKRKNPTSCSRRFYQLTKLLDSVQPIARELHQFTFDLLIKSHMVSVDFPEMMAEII

[3] = target: T3, ERα (Homo sapiens, UniProt P03372); experiment: Cell-based luciferase reporter assay, full length ERα, antagonist mode
T3 construct: employs a full length and native ER (comprised of an ER LBD and an ER DBD)
T3 sequence (P03372 1-595): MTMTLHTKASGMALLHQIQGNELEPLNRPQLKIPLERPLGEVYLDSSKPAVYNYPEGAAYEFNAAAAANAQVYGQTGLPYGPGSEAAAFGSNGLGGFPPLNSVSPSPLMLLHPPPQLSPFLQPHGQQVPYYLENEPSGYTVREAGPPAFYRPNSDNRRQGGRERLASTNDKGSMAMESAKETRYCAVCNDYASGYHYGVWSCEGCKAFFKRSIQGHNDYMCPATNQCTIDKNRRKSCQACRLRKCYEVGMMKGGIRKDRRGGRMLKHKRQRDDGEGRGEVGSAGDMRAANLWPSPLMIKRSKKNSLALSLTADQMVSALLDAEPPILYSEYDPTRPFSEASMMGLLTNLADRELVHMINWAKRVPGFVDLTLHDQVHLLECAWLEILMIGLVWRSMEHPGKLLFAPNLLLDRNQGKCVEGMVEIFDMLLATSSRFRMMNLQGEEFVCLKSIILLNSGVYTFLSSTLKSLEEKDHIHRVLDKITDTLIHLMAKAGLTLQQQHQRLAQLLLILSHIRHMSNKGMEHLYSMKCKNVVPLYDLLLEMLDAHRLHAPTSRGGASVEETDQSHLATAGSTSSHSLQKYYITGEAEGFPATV

[4] = target: T4, Thyroid Hormone Receptor (TRβ) (Homo sapiens, UniProt P10828); experiment: GeneBLAzer nuclear hormone receptor specificity assay, TRβ; format: cell-based; settings: 0.25 to 25 μM; listed as ISP358-2
T4 sequence (P10828 217-461 limits assumed): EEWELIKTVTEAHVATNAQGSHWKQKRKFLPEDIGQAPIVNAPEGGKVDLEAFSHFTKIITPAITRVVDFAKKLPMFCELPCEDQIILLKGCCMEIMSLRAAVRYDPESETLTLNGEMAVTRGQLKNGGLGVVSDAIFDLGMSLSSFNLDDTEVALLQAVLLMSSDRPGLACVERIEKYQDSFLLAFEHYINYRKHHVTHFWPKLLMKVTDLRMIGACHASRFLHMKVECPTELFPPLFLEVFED

[5] = tested on: ovariectomized mice; experiment: Peripheral tissue pathology (H&E of liver, kidney, heart); format: in vivo; settings: 24 h after single IP injection; 0.5 or 5 mg/kg ISP358-2, 0.05 mg/kg DPN
Procedure: Assessment of Potential Peripheral Pathology. To assess possible toxicity of ISP358-2 treatment to peripheral organs, ovariectomized mice received a single intraperitoneal injection of vehicle or ISP358-2, and liver, kidney, and heart tissues were collected 24 hours later. […] Tissues were fixed in 10% formalin buffered solution for 24 hours. Twenty specimens were processed and analyzed. Each specimen contained three pieces of tissue. The tissues from each animal was transferred to a labeled cassette and processed on an automated tissue processor following standard procedures. The tissues were then embedded in paraffin wax. No specific orientation of the tissue was performed. Four-micron sections were cut from each paraffin block and placed onto a slide. The slides were then stained using hematoxylin and cosin (H&E) on an automated stainer (FIGS. 13A-13L). The slides were then examined by a pathologist (ACM) who is board certified in anatomical pathology by the American Board of Pathology. All specimens contained three tissue samples corresponding to liver, kidney, and heart. In some instances, portions of adjacent tissues were also present. […] For heart, the myocytes and coronary vessels were examined, (2) evidence of inflammation was evaluated including hepatitis, glomerulonephritis, interstitial nephritis, and myocarditis, and (3) evidence of ischemic changes was examined. […]

[6] = target: T5, Glucocorticoid Receptor (GR) (Homo sapiens, UniProt P04150); experiment: GeneBLAzer nuclear hormone receptor specificity assay, GR; format: cell-based; settings: 0.25 to 25 μM; listed as ISP358-2
T5 sequence (P04150 524-758 limits assumed): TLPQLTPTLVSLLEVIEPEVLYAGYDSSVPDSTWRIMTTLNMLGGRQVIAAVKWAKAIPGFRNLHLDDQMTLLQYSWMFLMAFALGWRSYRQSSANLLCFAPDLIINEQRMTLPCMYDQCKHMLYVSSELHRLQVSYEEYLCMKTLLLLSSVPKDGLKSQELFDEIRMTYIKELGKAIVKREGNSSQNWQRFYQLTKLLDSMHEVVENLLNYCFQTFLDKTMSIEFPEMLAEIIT

[7] = target: T6, CYP2D6 (Homo sapiens, UniProt P10635); experiment: P450-Glo CYP450 inhibition, CYP2D6; format: in vitro ADME; settings: highest concentration 62.6 μM; listed as ISP358-2
T6 construct: purchased Promega Corporation (Madison, WI)
Procedure: as §1

T6 sequence (P10635 whole entry): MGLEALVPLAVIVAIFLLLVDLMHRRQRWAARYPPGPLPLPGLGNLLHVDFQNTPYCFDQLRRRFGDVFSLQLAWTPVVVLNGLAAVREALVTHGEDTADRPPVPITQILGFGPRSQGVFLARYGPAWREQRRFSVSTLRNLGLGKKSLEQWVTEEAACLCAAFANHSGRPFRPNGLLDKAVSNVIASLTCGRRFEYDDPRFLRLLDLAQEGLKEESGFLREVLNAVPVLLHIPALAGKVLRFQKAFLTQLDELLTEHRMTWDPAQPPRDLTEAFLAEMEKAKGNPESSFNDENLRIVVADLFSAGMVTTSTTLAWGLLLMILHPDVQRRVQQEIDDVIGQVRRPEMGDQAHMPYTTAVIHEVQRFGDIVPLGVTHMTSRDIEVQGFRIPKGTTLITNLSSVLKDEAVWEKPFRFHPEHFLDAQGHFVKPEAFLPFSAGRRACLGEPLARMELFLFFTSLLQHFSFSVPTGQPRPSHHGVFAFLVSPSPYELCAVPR
T1 sequence (P11712 whole entry): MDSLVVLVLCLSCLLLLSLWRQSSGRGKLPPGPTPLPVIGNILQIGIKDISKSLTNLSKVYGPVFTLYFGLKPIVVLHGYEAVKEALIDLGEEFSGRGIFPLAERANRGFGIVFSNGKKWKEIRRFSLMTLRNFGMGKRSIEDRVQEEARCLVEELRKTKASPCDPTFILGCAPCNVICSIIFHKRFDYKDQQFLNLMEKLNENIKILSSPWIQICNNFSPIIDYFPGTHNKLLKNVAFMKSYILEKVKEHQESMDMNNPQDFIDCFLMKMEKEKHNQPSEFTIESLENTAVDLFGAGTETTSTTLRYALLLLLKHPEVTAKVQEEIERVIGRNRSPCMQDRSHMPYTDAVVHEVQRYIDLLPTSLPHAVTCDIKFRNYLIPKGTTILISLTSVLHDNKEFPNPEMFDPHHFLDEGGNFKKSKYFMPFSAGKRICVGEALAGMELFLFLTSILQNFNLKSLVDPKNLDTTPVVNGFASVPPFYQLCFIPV

OC[C@H]1CC[C@H](c2ccc(O)cc2)CC1 [Compound 16]
CYP2C9 inhibition [1]: no significant inhibition | IC50 [1]: 34 ± 4.7 µM | agonist activity, AR [2]: not an agonist; also recorded: no significant off-target activity | ERα antagonist activity ([3]; concentrations up to 10 μM, listed as ISP358-2): No measurable antagonist activity | IC50 ([3]; inhibition of estradiol-induced transcription, read-out: ERα antagon. IC50): > 10 µM | agonist activity, TRβ [4]: not an agonist; also recorded: no significant off-target activity | histological abnormalities / peripheral toxicity in liver, kidney, heart [5]: unremarkable; also recorded: no obvious signs of peripheral toxicity; also recorded: Histological abnormalities were not detected | agonist activity, GR [6]: not an agonist; also recorded: no significant off-target activity | CYP2D6 inhibition [7]: no significant inhibition
